Patent US20230277550A1, “Methods for Treating Respiratory Diseases Characterized by Mucus Hypersecretion” (The Board of Trustees of the Leland Stanford Junior …, priority 2020, published 2023)
Entries after “also recorded” stand apart in the source; their conditions may differ.

Assays:
[1] = system: Primary healthy and cystic fibrosis airway epithelial cells; experiment: MCC formation in cystic fibrosis epithelia; assay type: cell-based, human; details: CF patient-derived cultures, ALI+0 to +21d
Method: Primary healthy and cystic fibrosis airway epithelial cells were treated with semagacestat (LY45139) during differentiation only (ALI+0 to +21d) and labeled at ALI+21d with anti-acetylated α-Tubulin (green) and ECAD (red) antibodies. […] Restoration of a healthy MCC/total cell ratio is expected to improve mucociliary clearance.

[2] = system: HNEC cultures from a CF patient; experiment: IL-13 induced chronic inflammation model in ALI HNEC cultures; assay type: cell-based, human; details: DAPT 1 um, semagacestat 125 nm, days 14-21
Method: Administration of IL-13 to ALI cultures induces goblet cell hyperplasia and is a useful model of chronic inflammation. ALI HNEC cultures were prepared as described in Vladar et al. ALI cultures were treated with and without administration of Il-13 on days 7-14. DAPT (1 um), semagacestat (125 nm) or vehicle control were administered on days 14-21. PFA-fixed cultures were stained for Muc5AC (red; mucin producing secretory cells), Acetylated tubulin (green; MCCs) and E-Cadherin (blue to reveal cell boundaries).
HNEC cultures from a CF patient were treated with IL-13 from ALI+7 to 14 to induce inflammation. […] IL-13 treatment increases the percentage of mucin positive secretory cells and decreases the percentage of MCCs.

[3] = system: airway epithelia; experiment: In vivo mouse model, ratio of MCCs to non-ciliated cells in airway epithelia after IP dosing; set-up: species or system mice
Method: Airways from lung sections of similar size were labeled for all nuclei (red; DAPI) and MCC cell fate (green; FoxJ1 and blue; acetylated tubulin). Cells were scored and the percentage of MCCs determined prior to unblinding treatment condition. Otherwise wildtype mice carried FoxJ1::GFP to facilitate scoring of MCCs.
10-40 week age-matched male and female Foxj1-GFP mice were given semagacestat or vehicle by intraperitoneal (IP) administration. In the first experiment, semagacestat was administered at 0.1 mg/kg and 1 mg/kg twice daily for three days and compared to vehicle alone. Mice were sacrificed on day 7. […] In approximately similar sized, PFA-fixed airways, nuclei (red; DAPI) were scored either as MCCs (green; GFP) or non-ciliated cells (absence of GFP). Acetylated tubulin (blue) marks cilia. Samples were blinded for treatment group prior to scoring.
(§1) In the second experiment, vehicle and semagacestat were administered once daily for 5 consecutive days per week for three weeks, with a semagacestat dose of 1 mg/kg. An important observed toxicity in multiple GSI clinical trials, including large Alzheimer’s Disease trials, was gastrointestinal toxicity. As a surrogate measure of GI toxicity, we monitored body weight throughout the experiment.
(§2) Body weight was measured on Days 1, 9, 24 and 30, and mice were sacrificed on day 31.

[4] = system: CFTR; experiment: CFTR current in Ussing chambers, GSI with or without ETI; assay type: cell-based, human; details: cultures from CF patients, GSI plus ETI
Method: Cells grown at an air liquid interface were mounted on a holding slider and inserted on an Ussing chamber for electrophysiological short circuit current (Isc) measurements. Solutions in the serosal and mucosal bath were prepared so that a chloride gradient was established between both sides. After stable baseline current recordings were obtained, agonists were added in the following order: amiloride (10 µM) to block sodium channel activity, forskolin (10 µM) to stimulate CFTR, Ivacaftor (10 µM) to potentiate CFTR activity, and CFTRinh-172 (20 µM) to block CFTR current. For each agonist signals were monitored until a plateau in current was noted before adding the next agonist. The delta-Isc in response to CFTRinh-172 was used as our main read out for CFTR-mediated chloride transport.
We directly measured CFTR activity in cultures from CF patients treated with GSI with or without well-established effective in vitro doses of Trikafta (Elexcaftor/Tezacaftor/Ivacaftor or “ETI”). Veit, G., et al., JCI (2020) 10.1172/jci.insight.139983. Measurements were performed in Ussing chambers. […] In some individual experiments, there appeared to be a synergistic effect in the combination treatment: GSI alone has no effect but the combination treatment produced a greater response than ETI alone. This effect was not consistently seen, but raised the possibility that synergy might be observed with lower ETI doses.
To examine this further, we tested MK04752 in combination with varying doses of ETI (FIG. 28).

[5] = In vivo mouse model, body weight as surrogate of GI toxicity, and mortality; details: 1 mg/kg IP, three weeks; days 9, 24 and 30
Method: as §1, §2

[6] = system: Primary nasal epithelial cells from two CF donors (F508del homozygotes); experiment: Mucus transport by latex bead movement; assay type: cell-based, human; details: 2 µm latex beads; p < 0.01 vs control; combination p < 0.05 vs either alone
Method: Primary nasal epithelial cells from two CF donors (F508del homozygotes) were grown in duplicate as in previous experiments to full differentiation under treatment with vehicle control, triple combination CFTR modulator (Elexcaftor/Tezacaftor/Ivacaftor), the GSI semagacestat (LY-45139) or both treatments combined. Once mature, a 20 µl suspension of 2 µm latex beads was added to the apical surface and the insert cut for placement under a microscope fitted with a high-speed video recorder. Images were then acquired at 1000 fps to track bead movement as a reflection of mucus transport by the ciliated surface and distance travelled by individual beads estimated.

[7] = system: Primary nasal epithelial cells from two CF donors (F508del homozygote); experiment: Airway surface liquid (ASL) reabsorption; assay type: cell-based, human; details: 30 µl PBS, weight change over time; p = <0.001 vs control
Method: Primary nasal epithelial cells from two CF donors (F508del homozygote) were grown in filter inserts as in previous experiments to full differentiation. During differentiation they received treatment with vehicle control (blue), triple combination CFTR modulator (Elexcaftor/Tezacaftor/Ivacaftor; orange), the GSI semagacestat (LY-45139) (gray) or both treatments combined (yellow). Once they reached maturity, the apical surface was washed gently with PBS and then 30 µl of PBS were added to the surface. The filter inserts were then weighed on a precision scale at times 0, 12 and 24 hours after fluid addition. The change in weight over time was taken as a surrogate for fluid reabsorption.

[8] = system: Primary human airway epithelial cells; experiment: GSI treatment from the apical or basal surface; assay type: cell-based; details: ALI+0 to +21d, apical or basal application
Method: Primary human airway epithelial cells were treated with DAPT and LY45139 during differentiation only (ALI+0 to +21d) from either the apical or basal surface, then labeled at ALI+21d with anti-acetylated α-Tubulin (green) and ECAD (red) antibodies. […] Apical treatment eliminates the air-liquid interface, which results in the poor epithelial structure and multiciliated cell differentiation in the untreated cultures, which is partially rescued by GSI treatment.

[9] = oral administration; cited from earlier work
[10] = system: Primary human airway epithelial cells; experiment: MCC formation with a variety of GSIs at high and low concentrations; assay type: cell-based

For `CC(C)[C@H](O)C(=O)N[C@@H](C)C(=O)N[C@@H]1C(=O)N(C)CCc2ccccc21` [semagacestat, (2S)-2-hydroxy-3-methyl-N-[(1S)-1-methyl-2-oxo-2-[[(1S)-2,3,4,5-tetrahydro-3-methyl-2-oxo-1H-3-benzazepin-1-yl]amino]ethyl]-butamide], the MCC/total cell ratio [1] was “effective in increasing MCC/total cell ratio”, the “percentage of MCCs” value ([2]; after IL-13 (ALI+7 to 14)) was “increasing the percentage of MCCs” and the “percentage of mucin positive secretory cells” value ([2]; after IL-13 (ALI+7 to 14)) was “decreasing the percentage of mucin positive secretory cells”. The “percentage of MCCs” value ([2]; controls without IL-13) was “increase the percentage off MCCs”, the “ratio of ciliated to non-ciliated cells” value ([3]; 0.1 mg/kg and 1 mg/kg IP twice daily for three days, sacrificed day 7, vs vehicle) was “increase; also recorded: a dose response trend was observed, with the high dose reaching statistical significance” and the “ratio of ciliated to non-ciliated cells” value ([3]; 1 mg/kg IP once daily, 5 days per week for three weeks, day 31, vs vehicle) was “significant increase; also recorded: highly significant”. For the same compound, the “CFTR current induced by ETI” value [4] was “Neither LY45139 (FIG. 26) nor MK04752 (FIG. 27) impaired the CFTR current”, the “body weight vs vehicle controls” value [5] was “no significant difference” and the “bead movement (mucus transport)” value [6] was “Significant increases in movement”. The “ASL (fluid) reabsorption vs control” value [7] was “significantly decreased reabsorption”, the ciliated cell formation [8] was “induces ciliated cell formation via both apical and basal application” and the half-life [9] was “approximately 2.5 hours”. For the same compound, the epithelial structure ([10]; high concentrations, ALI+0 to +21d) was “disrupted epithelial structure”, the multiciliated cell formation ([10]; low concentration, ALI+0 to +21d) was “induced multiciliated cell formation” and the “Notch signaling and differentiation towards MCCs” value ([10]; nanomolar range, human nasal epithelial cells) was “effective in blocking Notch signaling, driving differentiation towards MCCs”.
